Here are results for nine compounds from PubChem BioAssay (NCI).

Molecules are shown by their SMILES. Where “and” joins values, the source holds several entries; their conditions need not be identical. Equal entries are not always repeated.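 1) Cells in 96-well plates. 2) Compound, 48 h, 5 concentrations. 3) Linear interpolation between surrounding doses. 4) Unreached endpoint = highest concentration. Abbreviation: GI50, concentration required for 50% inhibition of growth. TGI denotes the concentration required for complete inhibition of growth.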 Some results are limits rather than exact numbers.

Among the test systems are CCRF-CEM leukemia; COLO 205 colon; HS 578T breast; M14 melanoma; MDA-MB-435; NCI-H522 lung; NCI/ADR-RES ovarian; RPMI-8226 leukemia; SNB-19 CNS; HOP-62 NSCLC.
Holding throughout (experiment): NCI anticancer screen, dose series, 48 h

As to `COc1ccc2c(c1)C(=O)c1c-2c(N2CCNCC2)nc2ccccc12`, the GI50 is 1.36 µM in the assay on CCRF-CEM leukemia; 1.66 µM in the assay with COLO 205 colon; 5.15 µM in the assay with HS 578T breast; 1.91 µM in the assay with M14 melanoma; 4.93 µM with MDA-MB-435; 3.95 µM in the assay with NCI-H522 lung. The GI50 was 6.33 µM in the assay on NCI/ADR-RES ovarian, 1.64 µM in the assay on RPMI-8226 leukemia and 5.44 µM in the assay on SNB-19 CNS. Besides, the TGI with CCRF-CEM leukemia is 2.94 µM; in the assay with COLO 205 colon, 3.28 µM; in the assay on HS 578T breast, 20.9 µM; in the assay with M14 melanoma, 3.51 µM; with MDA-MB-435, 17.9 µM; in the assay with NCI-H522 lung, 17 µM. For the same compound, the TGI worked out at 23.7 µM in the assay on NCI/ADR-RES ovarian, 3.39 µM in the assay on RPMI-8226 leukemia and 20.7 µM with SNB-19 CNS.
With `NC(=O)c1cccc(-c2cc(C(N)=O)ccc2Cl)c1`, the GI50 in the assay with CCRF-CEM leukemia is 2.19 µM; in the assay on COLO 205 colon, 3.21 µM; in the assay on HOP-62 NSCLC it was 3.51 µM; in the assay on HS 578T breast, 2.59 µM; in the assay with NCI-H522 lung, 2.39 µM; in the assay on NCI/ADR-RES ovarian it was 1.51 µM. Besides, the results for the GI50 in the assay with RPMI-8226 leukemia and with SNB-19 CNS were 0.318 µM and 2.89 µM, respectively. Besides, the TGI in the assay with CCRF-CEM leukemia is over 100 µM; in the assay on COLO 205 colon it was over 100 µM; in the assay with HOP-62 NSCLC it was over 100 µM; in the assay on HS 578T breast, over 100 µM; in the assay on NCI-H522 lung, 23.2 µM; with NCI/ADR-RES ovarian, 25.9 µM. In addition, the TGI was 3.11 µM in the assay on RPMI-8226 leukemia and over 100 µM in the assay on SNB-19 CNS.
As for `COc1cccc2c1[C@H]1CO[C@H]3C4C[C@H](C(=O)O)C([C@@H](C2)N13)N4C` (stereo not given in full), the GI50 in the assay on CCRF-CEM leukemia is 2.42 µM and 1.6 µM; in the assay on COLO 205 colon, 0.515 µM; in the assay with HOP-62 NSCLC, 3.92 µM and 1.72 µM; in the assay with NCI-H522 lung it was 0.0497 µM; with SNB-19 CNS, 3.81 µM. For the same compound, the TGI with COLO 205 colon was 2.58 µM and 2.41 µM; in the assay on HOP-62 NSCLC it was 9.75 µM and 5.44 µM; in the assay on HS 578T breast, 0.656 µM; in the assay on M14 melanoma, 6.35 µM; in the assay on MDA-MB-435, 0.204 µM; with NCI-H522 lung, 0.914 µM and 0.109 µM. Also, the values for the TGI in the assay with NCI/ADR-RES ovarian and in the assay on SNB-19 CNS were 7.74 µM and over 100 µM, respectively.
As to `Cc1ccc(Sc2oc(-c3ccc(C)cc3)nc2[P+](c2ccccc2)(c2ccccc2)c2ccccc2)cc1`, the GI50 in the assay on CCRF-CEM leukemia is 0.31 µM; in the assay with HS 578T breast, 0.378 µM; in the assay with M14 melanoma it was 0.403 µM; with MDA-MB-435 it was 0.336 µM; in the assay with NCI-H522 lung, 0.148 µM; in the assay on NCI/ADR-RES ovarian, 0.49 µM. In addition, the GI50 with RPMI-8226 leukemia was 0.308 µM; in the assay with SNB-19 CNS, 0.375 µM. Besides, the TGI with CCRF-CEM leukemia was 1.64 µM; in the assay with HS 578T breast, 1.98 µM; in the assay on M14 melanoma it was 1.57 µM; in the assay on MDA-MB-435 it was 1.2 µM; in the assay on NCI-H522 lung, 0.379 µM; in the assay on NCI/ADR-RES ovarian, 2.21 µM. Further, the TGI came out at 1.35 µM in the assay with RPMI-8226 leukemia and 1.47 µM in the assay on SNB-19 CNS.
On to `CCSc1nc(N)c(C#N)c(-c2ccco2)c1C#N`, for which the GI50 is 30.2 µM in the assay on COLO 205 colon; 80.9 µM in the assay on HOP-62 NSCLC; 33.9 µM in the assay with HS 578T breast; 48.1 µM in the assay with M14 melanoma; 25.2 µM in the assay with MDA-MB-435; 91.5 µM with NCI-H522 lung. Moreover, the GI50 in the assay on NCI/ADR-RES ovarian was 34 µM; in the assay on RPMI-8226 leukemia it was 12.2 µM; with SNB-19 CNS it was 51.2 µM. The TGI was over 100 µM with COLO 205 colon; over 100 µM with HOP-62 NSCLC; over 100 µM in the assay on HS 578T breast; over 100 µM in the assay with M14 melanoma; 66.1 µM in the assay on MDA-MB-435; over 100 µM in the assay with NCI-H522 lung. Further, the TGI in the assay with NCI/ADR-RES ovarian was over 100 µM; with RPMI-8226 leukemia it was 42.4 µM; in the assay with SNB-19 CNS it was over 100 µM.
Take `O=C1CSC(c2ccccc2O)N1c1nnc(Cn2ccnc2)o1` (stereo not given): the GI50 in the assay on CCRF-CEM leukemia was 4.37 µM; with COLO 205 colon it was 12.9 µM; in the assay with HOP-62 NSCLC, 17.6 µM; in the assay on HS 578T breast it was 20.5 µM; in the assay with M14 melanoma it was 7.97 µM; with MDA-MB-435, 2.35 µM. The GI50 is 12 µM in the assay on NCI-H522 lung, 3.18 µM in the assay on NCI/ADR-RES ovarian and 3.52 µM in the assay on RPMI-8226 leukemia. The TGI in the assay with CCRF-CEM leukemia is 52.9 µM; in the assay with COLO 205 colon, 45.7 µM; in the assay on HOP-62 NSCLC, over 100 µM; with HS 578T breast, over 100 µM; with M14 melanoma it was 43.9 µM; with MDA-MB-435 it was 8.55 µM. Besides, the TGI is 33 µM with NCI-H522 lung, 29.6 µM in the assay on NCI/ADR-RES ovarian and 24.4 µM in the assay with RPMI-8226 leukemia.
For `CCN(CC)C(=O)COc1cc2c(O)c3c(O)c(C)c4c(c13)C(=O)C(C)(OC=CC(OC)C(C)C(OC(C)=O)C(C)C(O)C(C)C(O)C(C)C=CC=C(C)C(=O)N2)O4` (stereo not given), the TGI in the assay on CCRF-CEM leukemia, with HOP-62 NSCLC, with HS 578T breast, with M14 melanoma, in the assay with NCI/ADR-RES ovarian and with RPMI-8226 leukemia was over 100 µM throughout. The compound also had a TGI in the assay on SNB-19 CNS of over 100 µM.
Take `CC(=O)O.CC(=O)O.CC(=O)O.CC(=O)O.[Rh].[Rh]`: the GI50 in the assay on CCRF-CEM leukemia is 5.1 µM; with COLO 205 colon, 7.3 µM; in the assay on HOP-62 NSCLC it was 28.8 µM; in the assay on HS 578T breast it was 60.6 µM; in the assay with M14 melanoma, 27.8 µM; with MDA-MB-435, 21.7 µM. Also, the GI50 in the assay on NCI/ADR-RES ovarian was 30.2 µM; in the assay on RPMI-8226 leukemia, 19.4 µM; in the assay on SNB-19 CNS, 60 µM. In addition, the TGI in the assay on CCRF-CEM leukemia is 20.3 µM; in the assay on COLO 205 colon, 30.1 µM; in the assay on HOP-62 NSCLC it was 84.3 µM; in the assay on HS 578T breast it was over 100 µM; in the assay on M14 melanoma, 82.5 µM; with MDA-MB-435 it was 55.4 µM. Moreover, the TGI was 92.2 µM with NCI/ADR-RES ovarian, 50.8 µM with RPMI-8226 leukemia and over 100 µM in the assay on SNB-19 CNS.
For `Cc1cc(NC(=O)c2cnc(N3CCN(CCOCCOCCOCCOCCC(=O)N[C@H](C(=O)N4C[C@H](O)C[C@H]4C(=O)N[C@@H](C)c4ccc(-c5scnc5C)cc4)C(C)(C)C)CC3)cn2)c2ncccc2c1`, the GI50 with CCRF-CEM leukemia was 3.37 µM; in the assay with COLO 205 colon, 5.11 µM; with HS 578T breast, 2.59 µM; in the assay with M14 melanoma, 2.19 µM; in the assay with MDA-MB-435, 2.25 µM; with NCI-H522 lung it was 1.96 µM. For the same compound, the GI50 with NCI/ADR-RES ovarian is over 100 µM; in the assay with SNB-19 CNS, 3.59 µM. Moreover, the TGI in the assay on CCRF-CEM leukemia was over 100 µM; in the assay with COLO 205 colon, over 100 µM; in the assay on HS 578T breast, 9.17 µM; in the assay on M14 melanoma, 4.94 µM; in the assay on MDA-MB-435, 5.38 µM; in the assay on NCI-H522 lung, 6.16 µM. Also, the TGI in the assay with NCI/ADR-RES ovarian was over 100 µM; with SNB-19 CNS, 14.7 µM.
